Values after ≈ are worked out from the molar mass of the structure shown.
Legend:
Type in all cases: functional
Pseudomonas aeruginosa = assay: Antibacterial activity against Pseudomonas aeruginosa ATCC 27853 assessed as reduction in bacterial growth measured after 18 to 24 hrs by broth microdilution method; details: time 18-24 hrs
Escherichia coli = assay: Antibacterial activity against Escherichia coli ATCC 25922 assessed as reduction in bacterial growth measured after 18 to 24 hrs by broth microdilution method; details: time 18-24 hrs
Enterococcus faecalis = assay: Antibacterial activity against Enterococcus faecalis ATCC 35550 assessed as reduction in bacterial growth measured after 18 to 24 hrs by broth microdilution method; details: time 18-24 hrs
Bacillus subtilis = assay: Antibacterial activity against Bacillus subtilis IITKSM1 assessed as reduction in bacterial growth measured after 18 to 24 hrs by broth microdilution method; details: time 18-24 hrs
Klebsiella pneumoniae = assay: Antibacterial activity against Klebsiella pneumoniae BAA 1705 assessed as reduction in bacterial growth measured after 18 to 24 hrs by broth microdilution method; details: time 18-24 hrs
Staphylococcus aureus [1] = assay: Antibacterial activity against Staphylococcus aureus ATCC 29213 assessed as reduction in bacterial growth measured after 18 to 24 hrs by broth microdilution method; details: time 18-24 hrs
Acinetobacter baumannii = assay: Antibacterial activity against Acinetobacter baumannii BAA 1605 assessed as reduction in bacterial growth measured after 18 to 24 hrs by broth microdilution method; details: time 18-24 hrs
Staphylococcus aureus [2] = assay: Antibacterial activity against Staphylococcus aureus assessed as reduction in bacterial growth
Staphylococcus aureus [3] = assay: Induction of morphological changes in Staphylococcus aureus ATCC 29213 assessed as cell shrinkage at 10 times MIC measured after 4 hrs by atomic force microscopy based analysis (reference value: 60.170 nanometer)
Staphylococcus aureus [4] = assay: Antibacterial activity against vacomycin-resistant Staphylococcus aureus VRS 4 assessed as reduction in bacterial growth measured after 18 to 24 hrs by broth microdilution method; details: time 18-24 hrs
Staphylococcus aureus [5] = assay: Antibacterial activity against vacomycin-resistant Staphylococcus aureus VRS 12 assessed as reduction in bacterial growth measured after 18 to 24 hrs by broth microdilution method; details: time 18-24 hrs
Staphylococcus aureus [6] = assay: Antibacterial activity against methicillin-resistant Staphylococcus aureus NRS 191 assessed as reduction in bacterial growth measured after 18 to 24 hrs by broth microdilution method; details: time 18-24 hrs
Staphylococcus aureus [7] = assay: Antibacterial activity against vacomycin-resistant Staphylococcus aureus VRS 1 assessed as reduction in bacterial growth measured after 18 to 24 hrs by broth microdilution method; details: time 18-24 hrs
Staphylococcus aureus [8] = assay: Antibacterial activity against methicillin-resistant Staphylococcus aureus NRS 129 assessed as reduction in bacterial growth measured after 18 to 24 hrs by broth microdilution method; details: time 18-24 hrs
Staphylococcus aureus [9] = assay: Antibacterial activity against methicillin-sensitive Staphylococcus aureus ATCC 29213 assessed as reduction in bacterial growth measured after 18 to 24 hrs by broth microdilution method; details: time 18-24 hrs
Staphylococcus aureus [10] = assay: Antibacterial activity against methicillin-resistant Staphylococcus aureus NRS 119 assessed as reduction in bacterial growth measured after 18 to 24 hrs by broth microdilution method; details: time 18-24 hrs
Staphylococcus aureus [11] = assay: Antibacterial activity against methicillin-resistant Staphylococcus aureus NRS 192 assessed as reduction in bacterial growth measured after 18 to 24 hrs by broth microdilution method; details: time 18-24 hrs
Staphylococcus aureus [12] = assay: Antibacterial activity against methicillin-resistant Staphylococcus aureus NRS 100 assessed as reduction in bacterial growth measured after 18 to 24 hrs by broth microdilution method; details: time 18-24 hrs
Staphylococcus aureus [13] = assay: Antibacterial activity against methicillin-resistant Staphylococcus aureus NRS 198 assessed as reduction in bacterial growth measured after 18 to 24 hrs by broth microdilution method; details: time 18-24 hrs
Staphylococcus aureus [14] = assay: Antibacterial activity against methicillin-resistant Staphylococcus aureus NRS 193 assessed as reduction in bacterial growth measured after 18 to 24 hrs by broth microdilution method; details: time 18-24 hrs
Staphylococcus aureus [15] = assay: Antibacterial activity against methicillin-resistant Staphylococcus aureus NRS 186 assessed as reduction in bacterial growth measured after 18 to 24 hrs by broth microdilution method; details: time 18-24 hrs
Staphylococcus aureus [16] = assay: Antibacterial activity against methicillin-resistant Staphylococcus aureus NRS 194 assessed as reduction in bacterial growth measured after 18 to 24 hrs by broth microdilution method; details: time 18-24 hrs

Compound	MIC (Pseudomonas aeruginosa) [µg/mL]	MIC (Escherichia coli) [µg/mL]	MIC (Enterococcus faecalis) [µg/mL]	MIC (Bacillus subtilis) [µg/mL]	MIC (Klebsiella pneumoniae) [µg/mL]	MIC (Staphylococcus aureus [1]) [µg/mL]	MIC (Acinetobacter baumannii) [µg/mL]	other results
O=C(O)c1cccc(C(=O)Nc2c(C(c3ccccc3)c3ccccc3)cc(Br)cc2C(c2ccccc2)c2ccccc2)c1	> 64	> 64	2 (≈ 3.06 µM)	2 (≈ 3.06 µM)	> 64	4 (≈ 6.13 µM)	> 64	
COc1cc(C(c2ccccc2)c2ccccc2)c(NC(=O)c2cccc(C(=O)O)c2)c(C(c2ccccc2)c2ccccc2)c1	> 64	> 64	64 (≈ 106 µM)	32 (≈ 53 µM)	> 64	8 (≈ 13.3 µM)	> 64	
NCCCC[C@H](N)C(=O)N[C@@H](Cc1ccccc1)CN(CC(=O)NCC12CC3CC(CC(C3)C1)C2)C(=O)CC12CC3CC(CC(C3)C1)C2								MIC (Staphylococcus aureus [2]): 1.56 µg/mL (≈ 2.36 µM)
CC(c1ccccc1)c1cc(Cl)cc(C(C)c2ccccc2)c1NC(=O)c1cccc(C(=O)O)c1 (stereo not drawn)	> 64	> 64	> 64	> 64	> 64	> 64	> 64	
CC1(C)S[C@@H]2[C@H](NC(=O)[C@H](N)c3ccccc3)C(=O)N2[C@H]1C(=O)O [AMPICILLIN]								Activity (Staphylococcus aureus [3]): 36.075 nm
O=C(O)c1cccc(C(=O)Nc2c(C(c3ccccc3)c3ccccc3)cc(C(F)(F)F)cc2C(c2ccccc2)c2ccccc2)c1	> 64	> 64	16 (≈ 24.9 µM)	1 (≈ 1.56 µM)	> 64	> 64	> 64	
CN(C)c1ccc(O)c2c1C[C@H]1C[C@H]3[C@H](N(C)C)C(O)=C(C(N)=O)C(=O)[C@@]3(O)C(O)=C1C2=O [MINOCYCLINE]								MIC (Staphylococcus aureus [4]): > 64 µg/mL; MIC (Staphylococcus aureus [5]): 16 µg/mL (≈ 35 µM); MIC (Staphylococcus aureus [6]): 64 µg/mL (≈ 140 µM); MIC (Staphylococcus aureus [7]): > 64 µg/mL; MIC (Staphylococcus aureus [8]): 8 µg/mL (≈ 17.5 µM); MIC (Staphylococcus aureus [9]): 0.25 µg/mL (≈ 0.546 µM); MIC (Staphylococcus aureus [10]): > 64 µg/mL; MIC (Staphylococcus aureus [11]): 32 µg/mL (≈ 69.9 µM); MIC (Staphylococcus aureus [12]): > 64 µg/mL; MIC (Staphylococcus aureus [13]): 64 µg/mL (≈ 140 µM); MIC (Staphylococcus aureus [14]): > 64 µg/mL; MIC (Staphylococcus aureus [15]): 8 µg/mL (≈ 17.5 µM); MIC (Staphylococcus aureus [16]): 2 µg/mL (≈ 4.37 µM)
CCOc1cc(C(c2ccccc2)c2ccccc2)c(NC(=O)c2cccc(C(=O)O)c2)c(C(c2ccccc2)c2ccccc2)c1	> 64	> 64	64 (≈ 104 µM)	1 (≈ 1.62 µM)	> 64	64 (≈ 104 µM)	> 64	
O=C(Nc1ccccc1)c1cc(Cl)ccc1O								MIC (Staphylococcus aureus [2]): ≥ 2.47 µg/mL
C[C@H]1COc2c(N3CCN(C)CC3)c(F)cc3c(=O)c(C(=O)O)cn1c23 [LEVOFLOXACIN ANHYDROUS]								MIC (Staphylococcus aureus [4]): > 64 µg/mL; MIC (Staphylococcus aureus [5]): 32 µg/mL (≈ 88.6 µM); MIC (Staphylococcus aureus [6]): 16 µg/mL (≈ 44.3 µM); MIC (Staphylococcus aureus [7]): 32 µg/mL (≈ 88.6 µM); MIC (Staphylococcus aureus [8]): 0.25 µg/mL (≈ 0.692 µM); MIC (Staphylococcus aureus [9]): 0.25 µg/mL (≈ 0.692 µM); MIC (Staphylococcus aureus [10]): 16 µg/mL (≈ 44.3 µM); MIC (Staphylococcus aureus [11]): 8 µg/mL (≈ 22.1 µM); MIC (Staphylococcus aureus [12]): 0.25 µg/mL (≈ 0.692 µM); MIC (Staphylococcus aureus [13]): 32 µg/mL (≈ 88.6 µM); MIC (Staphylococcus aureus [14]): 32 µg/mL (≈ 88.6 µM); MIC (Staphylococcus aureus [15]): 4 µg/mL (≈ 11.1 µM); MIC (Staphylococcus aureus [16]): 0.125 µg/mL (≈ 0.346 µM)
O=C(O)c1cccc(C(=O)Nc2c(C(c3ccccc3)c3ccccc3)cc(OC(F)F)cc2C(c2ccccc2)c2ccccc2)c1	> 64	> 64	2 (≈ 3.13 µM)	1 (≈ 1.56 µM)	> 64	4 (≈ 6.25 µM)	> 64	
O=C(O)c1cccc(C(=O)Nc2c(C(c3ccccc3)c3ccccc3)cc([N+](=O)[O-])cc2C(c2ccccc2)c2ccccc2)c1	> 64	> 64	8 (≈ 12.9 µM)	4 (≈ 6.47 µM)	> 64	4 (≈ 6.47 µM)	> 64	
